Laboratory results as given in PubChem BioAssay (NCI).
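Cultured in 96-well plates, cells were exposed to test compound for 48 hours across five concentrations. TGI is the concentration that stops growth completely.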

Legend:
Test in all cases: DTP human tumour cell line panel, 48 h
SNB-75 CNS = test system: SNB-75 CNS
DU-145 prostate = test system: DU-145 prostate
MDA-MB-231 breast = test system: MDA-MB-231 breast
A498 renal = test system: A498 renal
COLO 205 colon = test system: COLO 205 colon
OVCAR-4 ovarian = test system: OVCAR-4 ovarian
PC-3 prostate = test system: PC-3 prostate
K-562 leukemia = test system: K-562 leukemia
SF-295 CNS = test system: SF-295 CNS
MDA-N = test system: MDA-N
OVCAR-3 ovarian = test system: OVCAR-3 ovarian
HCT-15 colon = test system: HCT-15 colon
BT-549 breast = test system: BT-549 breast
HCT-116 colon = test system: HCT-116 colon
OVCAR-5 ovarian = test system: OVCAR-5 ovarian
HOP-62 NSCLC = test system: HOP-62 NSCLC
HS 578T breast = test system: HS 578T breast
SN12C renal = test system: SN12C renal
EKVX NSCLC = test system: EKVX NSCLC
786-0 renal = test system: 786-0 renal
SK-MEL-28 melanoma = test system: SK-MEL-28 melanoma
NCI/ADR-RES ovarian = test system: NCI/ADR-RES ovarian
SK-OV-3 ovarian = test system: SK-OV-3 ovarian
NCI-H226 lung = test system: NCI-H226 lung
CAKI-1 renal = test system: CAKI-1 renal
ACHN renal = test system: ACHN renal
OVCAR-8 ovarian = test system: OVCAR-8 ovarian
UO-31 renal = test system: UO-31 renal
UACC-257 melanoma = test system: UACC-257 melanoma
TK-10 renal = test system: TK-10 renal
MALME-3M melanoma = test system: MALME-3M melanoma

## NCC(O)CNCC/C=C\C/C=C\C/C=C\C/C=C\C/C=C\C/C=C\CCCCC/C=C\CCNCC(O)CN (stereo unspecified)
SNB-75 CNS
  TGI: 3.2 µM
DU-145 prostate
  TGI: 3.26 µM
MDA-MB-231 breast
  TGI: 3.18 µM
A498 renal
  TGI: 3.34 µM
COLO 205 colon
  TGI: 3.41 µM
OVCAR-4 ovarian
  TGI: 3.61 µM
PC-3 prostate
  TGI: 3.49 µM
K-562 leukemia
  TGI: > 100 µM
SF-295 CNS
  TGI: 4.29 µM
MDA-N
  TGI: 3.09 µM
OVCAR-3 ovarian
  TGI: 3.42 µM
HCT-15 colon
  TGI: 3.03 µM
BT-549 breast
  TGI: 7.47 µM
HCT-116 colon
  TGI: 3.18 µM
OVCAR-5 ovarian
  TGI: 3.41 µM
HOP-62 NSCLC
  TGI: 3.53 µM
HS 578T breast
  TGI: 2740 nM
SN12C renal
  TGI: 3.03 µM
EKVX NSCLC
  TGI: 2150 nM
786-0 renal
  TGI: 3.07 µM
SK-MEL-28 melanoma
  TGI: 14 µM
NCI/ADR-RES ovarian
  TGI: 2820 nM
SK-OV-3 ovarian
  TGI: 5.59 µM
NCI-H226 lung
  TGI: 13.4 µM
CAKI-1 renal
  TGI: 3.63 µM
ACHN renal
  TGI: 3.35 µM
OVCAR-8 ovarian
  TGI: 3.21 µM
UO-31 renal
  TGI: 3.72 µM
UACC-257 melanoma
  TGI: 4.43 µM
TK-10 renal
  TGI: 2960 nM
MALME-3M melanoma
  TGI: 4.34 µM
